The target in the assay is T1, Nuclear receptor ROR-gamma (Homo sapiens, UniProt P51449).
T1 sequence (P51449 whole entry): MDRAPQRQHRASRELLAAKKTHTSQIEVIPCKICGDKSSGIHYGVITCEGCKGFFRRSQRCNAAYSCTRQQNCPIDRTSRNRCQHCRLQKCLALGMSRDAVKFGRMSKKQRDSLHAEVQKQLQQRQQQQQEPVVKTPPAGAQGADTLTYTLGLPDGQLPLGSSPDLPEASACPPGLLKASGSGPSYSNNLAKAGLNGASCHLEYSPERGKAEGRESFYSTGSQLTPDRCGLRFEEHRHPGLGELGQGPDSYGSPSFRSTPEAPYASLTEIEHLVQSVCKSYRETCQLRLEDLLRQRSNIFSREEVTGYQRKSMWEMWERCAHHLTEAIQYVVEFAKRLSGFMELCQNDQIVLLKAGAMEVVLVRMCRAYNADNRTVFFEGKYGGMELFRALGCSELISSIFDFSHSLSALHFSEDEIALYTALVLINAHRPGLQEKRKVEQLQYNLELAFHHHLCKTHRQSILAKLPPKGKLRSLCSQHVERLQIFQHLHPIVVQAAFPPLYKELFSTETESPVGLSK
Description: Inverse agonist activity at N-terminal 6-His-tagged/APC-labeled human RORgammat LBD extracted from Escherichia coli assessed as inhibition of europium-labeled SRC-1 recruitment incubated for 3 hrs by TR-FRET analysis.

Consider `CCc1ccc2c(c1)CCC(C(F)(F)F)N2S(=O)(=O)c1ccc(OCC2CCOCC2)c(CO)c1` (racemic), for which the half-inhibitory concentration (IC50) came out at 0.023 µM.

On to `CCc1ccc2c(c1)CCC(CO)N2S(=O)(=O)c1ccc(OCC2CCOCC2)c(CO)c1` (racemic), for which the concentration for half-maximal inhibition (IC50) is 3.42 µM.

(Values after ChEMBL document CHEMBL6127136, “Discovery of 1-(Phenylsulfonyl)-1,2,3,4-tetrahydroquinoline Derivative as Orally Bioavailable and Safe RORγt Inverse Agonists for Potential Treatment of Rheumatoid Arthritis” (J Med Chem, 2024).)
